# Assay results as given in article PMC3184957, “Improving a Natural CaMKII Inhibitor by Random and Rational Design” (PLoS ONE, 2011).
# Entries after “also recorded” stand apart in the source; their conditions may differ. Where two headings read alike, the source gives them in different places. Ends that are not written are not given here.
# Key:
# CaMKIIα = target: T1, CaMKIIα (Rattus norvegicus, UniProt P11275); assay: CaMKII activity assay, phosphorylation of syntide 2; type: biochemical; conditions: for CaMKII activity remaining at 5 nM peptide: 5 nM peptide (Figs. S6, 7B); for effect of rational mutation in CN19a2v / CN19o on CaMKII inhibition (Fig. 6): compared with CN19a2v or CN19o, Fig. 6C CaMKII 0.5 nM; for fold greater potency of CaMKII inhibition compared to CN19: ratio of IC50 values; for effect of individual mutation of CN19 on potency of CaMKII inhibition: compared with CN19, some substitutions tested in CN19a2 or a3; for fold reduction of potency of CaMKII inhibition compared to CN19 (Ala scan): Ala substitution in CN19, Fig. 2
# T1 construct: made in house; host or cells: baculovirus/Sf9 (CaMKII); bacteria (CaM)
# Excerpt: CaM and CaMKII was purified after bacterial or baculovirus/Sf9 cell expression as described, [47]. Other kinases were purchased (PKA and PKC from PhosphoSolutions; others from SignalChem). […] All CN peptides were N-terminally acetylated and C-terminally amidated, except for the peptides used for the initial Ala scan. Substrate peptides were purchase from Genescript or as indicated. Chemicals were obtained from Sigma and Perkin Elmer. […] For all kinase activity assays, reactions were stopped by spotting onto P81 cation exchange chromatography paper (Whatman) squares. After extensive washes in water, phosphorylation of the substrate peptide bound to the P81 paper was measured by the Cherenkov method.
# PKC = PKC activity assay; type: biochemical, rat; conditions: 5 µM peptide; 2 nM PKC (PKM fragment), 10 min, MARCKS peptide
# Method: (§1) For all kinase activity assays, reactions were stopped by spotting onto P81 cation exchange chromatography paper (Whatman) squares. After extensive washes in water, phosphorylation of the substrate peptide bound to the P81 paper was measured by the Cherenkov method.
# (§2) Reactions were performed essentially as described for CaMKII. However, for AMPK, 100 µM AMP was added to the reaction. For AMPK, PKC, and PKA, the reaction mix contained 1 mM EGTA instead of CaCl2 and CaM. Prior to activity assays, CaMKI (12.5 nM) and CaMKIV (80 nM) were phosphorylated by CaMKKα (1.25–4 nM) for 5 min at 30°C in Ca^2+/CaM containing buffer. Additionally, kinase amount, reaction time, and the substrate (obtained from different companies as indicated) was varied as follows: 2.5 nM CaMKIα, 3 min, syntide 2 (Genescript); 5 nM CaMKIV, 10 min, CaMK2g 345–358 peptide (Anaspec); 2.5 nM DAPK1 1–363, 3 min, MLC-derived peptide (Anaspec); 5 nM AMPK-α2β1γ1, 10 min, SAMStide (SignalChem); 5 nM PKA, 10 min, Kemptide (Genescript); 2 nM PKC, 10 min, MARCKS peptide (Anaspec). PKA and PKC were purified from bovine heart or rat brain, respectively. […] Other kinases were recombinant protein from mouse (CaMKI) or human (CaMKK, CaMKIV, DAPK1, AMPK), of the isoform and/or subunit composition indicated above.
# DAPK1 1–363 = target: T2, DAPK1 1–363 (Homo sapiens, UniProt P53355); assay: DAPK1 activity assay; type: biochemical; conditions: 5 µM peptide; 2.5 nM DAPK1 1–363, 3 min, MLC-derived peptide
# T2 construct: 2.5 nM DAPK1 1–363, 3 min, MLC-derived peptide (Anaspec); purchased SignalChem
# Method: as §1, §2
# CaMKIV = target: T3, CaMKIV (Homo sapiens, UniProt Q16566); assay: CaMKIV activity assay; type: biochemical; conditions: 5 µM peptide; 5 nM CaMKIV, 10 min, CaMK2g 345–358 peptide
# T3 construct: purchased SignalChem
# Method: as §1, §2
# AMPK-α2β1γ1 = target: T4, AMPK-α2β1γ1 (Homo sapiens, UniProt P54619+P54646+Q9Y478); assay: AMPK activity assay; type: biochemical; conditions: 5 µM peptide; 5 nM AMPK, 10 min, SAMStide, 100 µM AMP
# T4 construct: purchased SignalChem
# Method: as §1, §2
# PKA = target: T5, PKA (Bos taurus, UniProt P00517); assay: PKA activity assay; type: biochemical, bovine; conditions: 5 µM peptide; 5 nM PKA catalytic subunits, 10 min, Kemptide
# T5 construct: PKA and PKC were purified from bovine heart or rat brain, respectively; purchased PhosphoSolutions; host or cells: bovine heart
# Method: as §1, §2
# CaMKIα = target: T6, CaMKIα (Mus musculus, UniProt Q91YS8); assay: CaMKI activity assay; type: biochemical; conditions: for IC50: 2.5 nM CaMKIα, 3 min, syntide 2, curve fit with Hill coefficient set as 1 (Fig. S5), read-out: IC50 of CaMKI inhibition; for effect on CaMKI activity at 5 µM peptide: 5 µM peptide (Figs. 5, 7B)
# T6 construct: purchased SignalChem
# Method: as §1, §2
# CaMKII = target: T7, CaMKII (Rattus norvegicus, UniProt P11275); assay: CaMKII activity assay, T-site binding substrate AC3; type: biochemical; conditions: S- and T-site binding substrate AC3, competitive inhibition (Fig. S1); read-out: IC50 for inhibition of CaMKII activity towards AC3
# T7 construct: made in house; host or cells: baculovirus/Sf9 (CaMKII); bacteria (CaM)
# Method: Standard reactions (1 min at 30°C) were started by adding CaMKIIα (2.5 nM subunits, unless stated otherwise) to a mix of 50 mM PIPES pH 7.2, 0.1% BSA, 1 µM CaM, 1 mM CaCl2, 10 mM MgCl2, 100 µM [γ-^32P]ATP (∼1 Ci/mmole), 75 µM substrate peptide (syntide 2, or as indicated), and inhibitor peptide as indicated. Reactions with 0.1 nM CaMKII were done for 10 min.
# as §1
# Systematic further truncation of CN21 defined the minimal inhibitory region, CN19 (Fig. 1B). […] Thus, the peptide C-terminally truncated by 2 amino acids (now termed CN19) contains the minimal inhibitory region with full inhibitory potency. Phosphorylation of syntide 2 by CaMKII was inhibited by CN21, CN20 and CN19 with an IC50 of ∼100 nM (Fig. 1C). Syntide 2 is a “regular” S-site binding CaMKII substrate, and CN peptides inhibit its phosphorylation in a non-competitive manner. We additionally tested AC3, an S- and T-site binding substrate, as this T-site binding results in competitive inhibition by CN peptides, which also bind to the T-site. […]
# [1] = class estimated from syntide 2 phosphorylation at 0.3 and 0.1 µM peptide, Ala scan peptides not N-acetylated / C-amidated, read-out: IC50 [μM] (Ala scan of CN19, Fig. 2)
# [2] = values compared from Figs. 1, 4 and 7, read-out: CaMKII IC50 (Fig. S5 table and legend)
# [3] = in vitro [γ-32P]ATP assay, substrate syntide 2, 30°C, approximate values (Figs. 1C, 4B, 6), read-out: IC50 of inhibition of CaMKII phosphorylation of syntide 2
# T4 sequence (P54646 whole entry): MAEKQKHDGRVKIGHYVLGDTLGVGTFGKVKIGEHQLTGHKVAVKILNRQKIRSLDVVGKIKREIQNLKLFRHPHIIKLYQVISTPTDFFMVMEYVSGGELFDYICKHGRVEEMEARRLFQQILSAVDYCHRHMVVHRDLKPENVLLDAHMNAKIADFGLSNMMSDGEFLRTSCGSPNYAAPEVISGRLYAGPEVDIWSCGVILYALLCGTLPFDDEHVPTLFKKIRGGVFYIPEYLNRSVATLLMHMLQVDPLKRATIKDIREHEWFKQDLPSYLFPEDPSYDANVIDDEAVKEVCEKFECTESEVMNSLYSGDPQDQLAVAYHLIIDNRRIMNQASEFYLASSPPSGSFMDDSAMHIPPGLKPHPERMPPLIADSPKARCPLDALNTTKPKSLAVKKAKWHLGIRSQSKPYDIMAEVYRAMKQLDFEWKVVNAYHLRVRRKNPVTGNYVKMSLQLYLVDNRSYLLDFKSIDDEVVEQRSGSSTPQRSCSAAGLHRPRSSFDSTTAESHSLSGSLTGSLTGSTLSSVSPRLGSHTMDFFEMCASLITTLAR
# T4 sequence (Q9Y478 whole entry partner): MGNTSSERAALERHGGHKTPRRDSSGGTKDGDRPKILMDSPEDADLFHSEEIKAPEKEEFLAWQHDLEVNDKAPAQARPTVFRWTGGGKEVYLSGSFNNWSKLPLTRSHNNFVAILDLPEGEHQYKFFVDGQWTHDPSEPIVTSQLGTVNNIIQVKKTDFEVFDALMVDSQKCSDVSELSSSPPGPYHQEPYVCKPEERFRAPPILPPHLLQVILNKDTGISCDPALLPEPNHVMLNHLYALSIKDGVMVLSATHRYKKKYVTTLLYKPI
# T4 sequence (P54619 whole entry partner): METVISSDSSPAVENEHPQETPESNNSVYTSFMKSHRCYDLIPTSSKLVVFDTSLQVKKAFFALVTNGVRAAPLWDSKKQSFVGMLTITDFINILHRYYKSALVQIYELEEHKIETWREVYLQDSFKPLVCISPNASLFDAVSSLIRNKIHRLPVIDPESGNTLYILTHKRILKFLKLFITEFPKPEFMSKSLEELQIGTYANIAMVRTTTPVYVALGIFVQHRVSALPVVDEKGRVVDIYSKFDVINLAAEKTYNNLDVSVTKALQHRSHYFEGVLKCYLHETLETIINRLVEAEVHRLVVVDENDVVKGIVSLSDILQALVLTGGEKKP
substance,measurement,setting,value
ARPPKLGQIGRSKRVVIED [K1A],IC50,CaMKIIα; [1],< 0.3 µM
Ac-KRAPKLGQIGRQKAVDIED-NH2 [CN19o],effect on PKC activity at 5 µM,PKC,did not significantly affect
same,effect on DAPK1 activity at 5 µM,DAPK1 1–363,did not significantly affect
same,CaMKII activity remaining at 5 nM peptide,CaMKIIα,blocked CaMKII activity almost completely
same,IC50,"CaMKIIα; CaMKII reduced to 0.1 nM, 10 min reaction, IC50 dependent on CaMKII concentration (tight binding inhibitor), read-out: IC50 for CaMKII inhibition by CN19o (Fig. 7A)",< 0.0004 µM
same,effect of rational mutation in CN19a2v / CN19o on CaMKII inhibition (Fig. 6),CaMKIIα,increased potency even further
same,fold greater potency of CaMKII inhibition compared to CN19,CaMKIIα,> 250 fold
same,IC50,CaMKIIα; [2],0.0004 µM
same,effect on CaMKIV activity at 5 µM,CaMKIV,did not significantly affect
same,effect on AMPK activity at 5 µM,AMPK-α2β1γ1,did not significantly affect
same,effect on PKA activity at 5 µM,PKA,did not significantly affect
same,fold increase of selectivity for CaMKII vs CaMKI compared to CN19,CaMKIα,> 250 fold
same,IC50,CaMKIα,38 µM
same,effect on CaMKI activity at 5 µM peptide,CaMKIα,did not significantly affect
same,CaMKII selectivity (Fig. S5 table),CaMKIα; ratio CaMKI IC50 / CaMKII IC50,"> 100,000 x"
same,selectivity for CaMKII vs CaMKI,CaMKIα; ratio CaMKI IC50 / CaMKII IC50,"~100,000 fold"
Ac-KRAPKLGQIGRQKAVVIED-NH2 [CN19a2v V12Q],effect of rational mutation in CN19a2v / CN19o on CaMKII inhibition (Fig. 6),CaMKIIα,significantly increased potency
same,IC50,CaMKIIα; [3],~0.001 µM
Ac-KRAPKLGQIGRVKAVDIED-NH2 [CN19a2v V16D],effect of rational mutation in CN19a2v / CN19o on CaMKII inhibition (Fig. 6),CaMKIIα,significantly increased potency
same,IC50,CaMKIIα; [3],~0.001 µM
Ac-KRAPKLGQIGRVKAVVIED-NH2 [CN19a2v],CaMKII activity remaining at 5 nM peptide,CaMKIIα,~75%
same,potency of CN19 combination mutants (Fig. 4),"CaMKIIα; 20 nM peptide, syntide 2",without loss of its potency; also recorded: significantly stronger compared to CN19a3 with additional S12V mutation (CN19a3v)
same,"effect of further mutation in CN19a2 on CaMKII inhibition (Figs. S3B, S4B)",CaMKIIα; compared with CN19a2,retained potency of CaMKII inhibition
same,fold greater potency of CaMKII inhibition compared to CN19,CaMKIIα,~5 fold
same,IC50,CaMKIIα; [2],0.02 µM
same,fold greater potency of CaMKI inhibition compared to CN19,CaMKIα,~2 fold
same,fold increase of selectivity for CaMKII vs CaMKI compared to CN19,CaMKIα,~2.5 fold
same,IC50,CaMKIα,18 µM
same,effect on CaMKI activity at 5 µM peptide,CaMKIα,did not inhibit
same,CaMKI activity at 20 µM peptide,"CaMKIα; 20 µM peptide, remaining activity (Fig. 5B)",~60%
same,selectivity for CaMKII vs CaMKI,CaMKIα; ratio CaMKI IC50 / CaMKII IC50,~900 fold
Ac-KRPPKLGQIGRSKRVVIED-NH2 [CN19],IC50,CaMKIIα; [2],0.1 µM
same,IC50,CaMKII,~1 µM
same,IC50,CaMKIα,36 µM
same,effect on CaMKI activity at 5 µM peptide,CaMKIα,did not significantly inhibit
same,selectivity for CaMKII vs CaMKI,CaMKIα; ratio CaMKI IC50 / CaMKII IC50,~360 fold
Ac-KRPPKLGQIGRSKRVVIEDD-NH2 [CN20],effect of CN21 truncation on CaMKII inhibition (Fig. 1B),"CaMKIIα; CaMKII 20 nM, 40 µM syntide 2",not different between each other
same,IC50,CaMKIIα; [3],~0.1 µM
"Ac-KRPPKLGQIGRSKRVVIEDDR-NH2 [CN21, reference compound]",IC50,CaMKIIα,~0.1 µM
same,IC50,CaMKII,~1 µM
same,effect on CaMKI activity at 5 µM peptide,CaMKIα,did not significantly inhibit
H-KRPPKLGAIGRSKRVVIED-OH [Q8A],IC50,CaMKIIα; [1],~0.1 µM
H-KRPPKLGQIGRSKRVAIED-OH [V16A],IC50,CaMKIIα; [1],~0.1 µM
KAPPKLGQIGRSKRVVIED [R2A],IC50,CaMKIIα; [1],< 0.3 µM
KRAPKLGQIGRSKRVVIED [P3A],IC50,CaMKIIα; [1],< 0.1 µM
same,effect of individual mutation of CN19 on potency of CaMKII inhibition,CaMKIIα; syntide 2,significantly increased potency
KRPAKLGQIGRSKRVVIED [P4A],IC50,CaMKIIα; [1],> 0.3 µM
KRPPALGQIGRSKRVVIED [K5A],IC50,CaMKIIα; [1],< 0.3 µM
KRPPKAGQIGRSKRVVIED [L6A],IC50,CaMKIIα; [1],> 0.3 µM
KRPPKLAQIGRSKRVVIED [G7A],IC50,CaMKIIα; [1],< 0.3 µM
KRPPKLGQAGRSKRVVIED [I9A],IC50,CaMKIIα; [1],> 0.3 µM
KRPPKLGQIARSKRVVIED [G10A],IC50,CaMKIIα; [1],> 0.3 µM
KRPPKLGQIGASKRVVIED [R11A],fold reduction of potency of CaMKII inhibition compared to CN19 (Ala scan),CaMKIIα,more than 3 fold
same,IC50,CaMKIIα; [1],> 0.3 µM
KRPPKLGQIGRAKRVVIED [S12A],fold reduction of potency of CaMKII inhibition compared to CN19 (Ala scan),CaMKIIα,more than 3 fold
same,IC50,CaMKIIα; [1],> 0.3 µM
KRPPKLGQIGRSARVVIED [K13A],IC50,CaMKIIα; [1],< 0.1 µM
same,effect of individual mutation of CN19 on potency of CaMKII inhibition,CaMKIIα; syntide 2,significantly increased potency
KRPPKLGQIGRSKAVVIED [R14A],IC50,CaMKIIα; [1],< 0.1 µM
same,effect of individual mutation of CN19 on potency of CaMKII inhibition,CaMKIIα; syntide 2,significantly increased potency
KRPPKLGQIGRSKRAVIED [V15A],IC50,CaMKIIα; [1],< 0.3 µM
KRPPKLGQIGRSKRVVAED [I17A],IC50,CaMKIIα; [1],< 0.3 µM
KRPPKLGQIGRSKRVVIAD [E18A],IC50,CaMKIIα; [1],< 0.3 µM
KRPPKLGQIGRSKRVVIEA [D19A],IC50,CaMKIIα; [1],< 0.3 µM
